Measured values taken from ChEMBL document CHEMBL2157888, “The therapeutic journey of benzimidazoles: a review” (Bioorg Med Chem, 2012).
Values after ≈ are worked out from the molar mass of the structure shown.

Experiments:
[1] = biological target: T1, C-C chemokine receptor type 3 (Homo sapiens, UniProt P51677); assay: Inhibition of CCR3 receptor
T1 sequence (P51677 whole entry): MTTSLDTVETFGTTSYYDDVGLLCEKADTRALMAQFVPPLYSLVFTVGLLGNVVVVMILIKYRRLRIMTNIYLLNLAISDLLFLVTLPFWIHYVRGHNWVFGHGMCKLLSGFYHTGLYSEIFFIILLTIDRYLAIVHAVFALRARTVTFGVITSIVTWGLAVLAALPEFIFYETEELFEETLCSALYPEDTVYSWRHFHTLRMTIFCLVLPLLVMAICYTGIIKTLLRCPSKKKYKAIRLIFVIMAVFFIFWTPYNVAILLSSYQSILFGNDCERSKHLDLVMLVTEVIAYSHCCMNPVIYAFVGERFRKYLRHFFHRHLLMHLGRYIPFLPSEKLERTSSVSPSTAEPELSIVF

[2] = Aqueous solubility of the compound; type: physicochemical; settings: water (aqueous)
[3] = biological target: T2, Gonadotropin-releasing hormone receptor (Homo sapiens, UniProt P30968); assay: Inhibition of GnRH receptor
T2 sequence (P30968 whole entry): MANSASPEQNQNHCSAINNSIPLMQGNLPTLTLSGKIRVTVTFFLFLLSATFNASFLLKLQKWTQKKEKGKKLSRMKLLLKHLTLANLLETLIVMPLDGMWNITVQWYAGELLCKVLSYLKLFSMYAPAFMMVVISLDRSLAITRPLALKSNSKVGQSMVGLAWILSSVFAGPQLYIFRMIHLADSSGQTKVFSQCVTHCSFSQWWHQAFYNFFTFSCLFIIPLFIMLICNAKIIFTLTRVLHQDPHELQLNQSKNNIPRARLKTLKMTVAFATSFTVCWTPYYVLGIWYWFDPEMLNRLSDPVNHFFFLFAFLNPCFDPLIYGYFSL

Structure (SMILES)	Ki [1] [nM]	solubility [2] [µg/mL]	IC50 [3] [nM]
Fc1ccc2c(c1)nc(CC(F)(F)F)n2C1CCNCC1	100	–	–
Fc1ccc(SCCCN2CCC(n3c(CC(F)(F)F)nc4cc(F)ccc43)CC2)cc1	9	–	–
CCc1cc(CN2CCN(c3cccc4[nH]c(-c5ccc(C(C)(C)C)cc5)nc34)CC2)nn1C	–	55 (≈ 120 µM)	7
CCCn1cc(CN2CCN(c3cccc4[nH]c(-c5ccc(C(C)(C)C)cc5)nc34)CC2)nc1C	–	100 (≈ 212 µM)	–
